Calls of active or inactive are those of the source.
How the values were obtained:
[1] = test system: CHO; test: CHO cell viability loss, potency – luminescence, cytotoxicity control for TLR9-MyD88 binding inhibitor project, dose response (AID 588339); assay type: functional, cell-based, hamster; settings: Cricetulus griseus;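 note: CHO cells stably coexpressing TLR9 and MyD88 fusions from primary screen; compound exposure lasted 48 hours before viability readout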
[2] = target: Beta Lactamase (Pseudomonas aeruginosa, UniProt Q932Y6); test: BLA reporter interference, concentration series – BLA reporter cells, FRET fluorescence, artefact control for TLR9-MyD88 binding inhibitor project, dose response (AID 588341); assay type: cell-based;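 note: cell based assay in CHO-K1 cells stably expressing beta-lactamase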
Chain of Beta Lactamase (Q932Y6 whole entry): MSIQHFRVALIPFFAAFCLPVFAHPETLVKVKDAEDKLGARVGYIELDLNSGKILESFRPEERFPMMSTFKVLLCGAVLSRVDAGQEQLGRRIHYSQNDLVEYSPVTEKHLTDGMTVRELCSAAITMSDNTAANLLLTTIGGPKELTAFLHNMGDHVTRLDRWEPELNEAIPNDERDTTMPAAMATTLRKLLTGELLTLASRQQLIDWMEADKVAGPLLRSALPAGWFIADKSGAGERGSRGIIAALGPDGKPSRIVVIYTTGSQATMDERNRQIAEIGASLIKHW

[3] = test system: BJ; test: BJ-TERT fibroblast viability loss – cell-based, RAS-independent, luminescence, dose response (AID 1933); assay type: functional; settings: Homo sapiens
[4] = test system: BJ; test: cells; assay type: functional, cell-based; settings: Homo sapiens
[5] = Trypanosoma cruzi growth suppression in host cells – NIH3T3 host cells, beta-gal luminescence, confirmation (AID 2044); assay type: functional, cell-based;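 note: intracellular parasites grown in NIH/3T3 mouse fibroblasts as host cells; luminescent beta-galactosidase reporter signal from transgenic T. cruzi replicating inside host cells; inhibitors lower the luminescence signal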
[6] = NIH3T3 cell viability loss – ATP luminescence, mouse fibroblasts, counter-screen, dose response (AID 2010); assay type: functional, cell-based;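 note: cells exposed to compound for about 90 hours before reading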
[7] = test system: BJ; test: BJ-TERT-LT-ST fibroblast viability loss – cell-based, RAS-independent, luminescence, dose response (AID 1935); assay type: functional; settings: Homo sapiens;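 note: BJ fibroblasts immortalized with TERT plus LT and ST oncogenes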
[8] = DRD fibroblast viability loss – cell-based, non-viral oncogenic, luminescence, dose response (AID 1934); assay type: functional; settings: Homo sapiens
[9] = Luminescence Cell-Based Dose Retest to Confirm Inhibitors of Cancer Stem Cells. [Related pubchem assays (depositor defined):AID2717, AID2721]; assay type: functional; settings: Homo sapiens
[10] = viability loss of HMLE_sh_eGFP cells – cell-based, luminescence, counter-screen for HMLE_sh_ECad selective toxicity project, dose response (AID 463074); assay type: functional, Homo sapiens;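 note: HMLE human mammary epithelial cells expressing control shRNA against eGFP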
[11] = target: UDP-galactopyranose mutase (Mycobacterium tuberculosis, UniProt P9WIQ1); test: Inhibitors of Mycobacterium tuberculosis UDP-galactopyranose mutase (UGM) enzyme Measured in Biochemical System Using Plate Reader - 2105-02_Inhibitor_Dose_CherryPick_Activity. [Related pubchem assays (depositor defined):AID504439]
Chain of UDP-galactopyranose mutase (P9WIQ1 whole entry): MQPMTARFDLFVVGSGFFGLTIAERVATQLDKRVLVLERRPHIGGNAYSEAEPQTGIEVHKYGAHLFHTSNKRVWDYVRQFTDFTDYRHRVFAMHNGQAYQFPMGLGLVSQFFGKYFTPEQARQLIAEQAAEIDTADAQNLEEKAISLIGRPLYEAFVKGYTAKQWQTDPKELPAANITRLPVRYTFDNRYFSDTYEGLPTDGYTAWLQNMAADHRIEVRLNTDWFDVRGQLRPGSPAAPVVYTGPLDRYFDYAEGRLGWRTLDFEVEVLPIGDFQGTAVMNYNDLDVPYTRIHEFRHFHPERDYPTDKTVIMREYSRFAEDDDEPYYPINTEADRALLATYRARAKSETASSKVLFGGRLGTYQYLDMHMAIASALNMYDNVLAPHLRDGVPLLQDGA

[12] = T. cruzi infection blockers in NIH3T3 cells – beta-gal luminescence, NIH3T3 host cells, confirmation (AID 2630); assay type: functional, cell-based; settings: Mus musculus
[13] = test system: Candida albicans; test: fluconazole-resistant Candida strain growth inhibitors – CaCi-8 strain, dry powder, set 4, dose response (AID 488950); assay type: functional, organism-based
[14] = test system: Candida albicans; test: resistant Candida growth with fluconazole co-treatment – CaCi-8 strain, Alamar Blue, dry powder, set 2, dose response (AID 488909); assay type: functional, organism-based
[15] = test system: HEK293; test: HEK293T cell viability loss, resazurin readout – resazurin fluorescence, cytotoxicity control for NF-kB activator project, SAR follow-up (AID 493251); assay type: functional, cell-based; settings: Homo sapiens
[16] = target: T1, sn-1-specific diacylglycerol lipase ABHD11 (Mus musculus, UniProt Q8K4F5); test: Late stage assay provider results from the probe development effort to identify inhibitors of LYPLA1: fluorescence-based cell-based gel-based Activity-Based Protein Profiling (ABPP) IC50 for anti-target ABHD11. [Related pubchem assays (depositor defined):AID2174, AID2177, AID2202, AID2203, AID2232, AID2233, AID493105, AID493108, AID493109, AID493110, AID493111, AID493154, AID493161, AID504892]; assay type: functional
T1 sequence (Q8K4F5 whole entry): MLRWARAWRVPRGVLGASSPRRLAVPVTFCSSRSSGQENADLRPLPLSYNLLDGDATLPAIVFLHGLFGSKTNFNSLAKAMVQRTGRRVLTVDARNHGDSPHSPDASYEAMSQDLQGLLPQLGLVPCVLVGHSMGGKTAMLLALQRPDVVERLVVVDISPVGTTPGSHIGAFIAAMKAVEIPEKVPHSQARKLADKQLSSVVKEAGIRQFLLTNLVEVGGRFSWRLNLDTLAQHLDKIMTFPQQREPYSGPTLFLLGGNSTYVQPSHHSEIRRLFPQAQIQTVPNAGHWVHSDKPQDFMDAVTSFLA

[17] = target: T1, sn-1-specific diacylglycerol lipase ABHD11; test: Late stage assay provider results from the probe development effort to identify inhibitors of LYPLA1 and LYPLA2: Gel-based Activity-Based Protein Profiling (ABPP) IC50 for off-target ABHD11. [Related pubchem assays (depositor defined):AID2174, AID2202, AID2203, AID2233, AID504482, AID504498, AID504505, AID504507, AID504510, AID504520, AID504522, AID504892]; assay type: functional
[18] = target: Voltage-gated inwardly rectifying potassium channel KCNH2 (Homo sapiens, UniProt Q12809); settings: Potency;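 note: confirmatory quantitative high-throughput screen measuring inhibition of hERG channel activity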
Chain of Voltage-gated inwardly rectifying potassium channel KCNH2 (Q12809 whole entry): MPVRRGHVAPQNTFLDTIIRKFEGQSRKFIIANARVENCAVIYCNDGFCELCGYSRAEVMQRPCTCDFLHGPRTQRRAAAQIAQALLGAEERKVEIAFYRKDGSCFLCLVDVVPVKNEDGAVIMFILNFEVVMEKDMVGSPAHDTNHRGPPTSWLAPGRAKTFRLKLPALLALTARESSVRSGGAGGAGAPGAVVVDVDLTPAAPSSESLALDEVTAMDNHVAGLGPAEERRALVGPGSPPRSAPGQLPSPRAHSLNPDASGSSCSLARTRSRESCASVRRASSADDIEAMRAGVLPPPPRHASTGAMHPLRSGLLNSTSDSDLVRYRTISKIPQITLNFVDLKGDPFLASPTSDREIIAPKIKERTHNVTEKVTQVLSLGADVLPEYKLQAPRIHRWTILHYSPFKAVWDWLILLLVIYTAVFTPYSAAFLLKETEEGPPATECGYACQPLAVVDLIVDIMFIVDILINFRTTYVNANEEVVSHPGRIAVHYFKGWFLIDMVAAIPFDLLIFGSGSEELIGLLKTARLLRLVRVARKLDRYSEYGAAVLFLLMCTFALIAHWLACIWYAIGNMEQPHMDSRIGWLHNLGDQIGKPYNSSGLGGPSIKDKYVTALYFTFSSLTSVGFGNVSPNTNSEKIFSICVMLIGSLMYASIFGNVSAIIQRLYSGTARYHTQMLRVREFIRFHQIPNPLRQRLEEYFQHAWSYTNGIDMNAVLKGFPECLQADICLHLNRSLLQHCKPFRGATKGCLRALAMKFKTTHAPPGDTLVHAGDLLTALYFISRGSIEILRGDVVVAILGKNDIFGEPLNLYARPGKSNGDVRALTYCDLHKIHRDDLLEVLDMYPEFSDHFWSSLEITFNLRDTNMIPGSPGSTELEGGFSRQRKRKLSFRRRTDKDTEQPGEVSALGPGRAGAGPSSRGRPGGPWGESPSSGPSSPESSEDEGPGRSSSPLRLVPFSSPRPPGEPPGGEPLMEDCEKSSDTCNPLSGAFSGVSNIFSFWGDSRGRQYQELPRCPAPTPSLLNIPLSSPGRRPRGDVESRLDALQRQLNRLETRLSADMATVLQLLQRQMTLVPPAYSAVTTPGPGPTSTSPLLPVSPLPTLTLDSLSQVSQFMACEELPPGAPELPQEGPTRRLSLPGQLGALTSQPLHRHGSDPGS

## Cc1nn(C)c(C)c1N1C(=O)c2cccc3c(Br)ccc(c23)C1=O
[1]
  IC50: 7.3 µM (active)
[2]
  IC50: 5.72 µM (active)

## CN1CCN(c2ccc(C(=O)c3ccccc3)cc2[N+](=O)[O-])CC1
[3]
  EC50: > 150 µM (not active)
[4]
  EC50: > 150 µM (not active)
[5]
  EC50: 0.399 µM (active)
[6]
  EC50: > 60 µM (not active)
[7]
  EC50: > 150 µM (inconclusive)
[8]
  EC50: > 150 µM (not active)
[9]
  AC50: 2.09 µM (active)
[10]
  AC50: 77.6 µM (active)

## O=C(COC(=O)c1ccc([N+](=O)[O-])o1)NC1CCCC1
[11]
  AC50: > 500 µM (inactive)

## Cc1ccc(NC(=O)CCC(=O)N/N=C/c2ccc(C)o2)c(C)c1
[12]
  EC50: 195 µM (inactive)

## O=C(c1ccc(Cl)cc1)N1CCCN(c2ccnc3cc(Cl)ccc23)CC1
[13]
  AC50: 12.7 µM (active)
[14]
  AC50: < 0.195 µM (active)

## Cc1oc(-c2ccccc2)nc1CSCC(=O)NCc1ccco1
[15]
  IC50: > 80 µM (inactive)

## CCC1CCCCN1C(=O)n1ncc(C(O)(c2ccccc2)c2ccccc2)n1 (stereo not drawn)
[16]
  IC50: 0.000678 µM (active)
[17]
  IC50: 0.015 µM (active)

## C(=C/c1ccccc1)/c1ccccc1
[18]
  AC50: 22.4 µM (inconclusive)

From ChEMBL document CHEMBL1201862, “PubChem BioAssay data set” (2004)
